# Results as given in patent US20230399623A1, “ARTIFICAL LIVER ORGANOIDS AND METHODS OF THEIR PRODUCTION” (Oslo Universitetssykehus HF, priority 2020, published 2023).
# Legend:
# organoids [1] = test: Oleic acid accumulation assay (BODIPY lipid staining); assay type: cell-based, human; conditions: 300 μM, 5 days
# Experimental: 1 M Oleic acid (Sigma Aldrich) was diluted with NaOH (Sigma Aldrich) and heated at 70° C. for 30 minutes to form a 20 mM Sodium Oleate solution. This was then diluted with a 5% BSA/PBS solution at 37° C. to form a 5 mM Sodium Oleate/BSA complex. This was further diluted to 300 μM in culture media and incubated with organoids for 5 days, changing the media each day. After the fatty acid treatment, the organoids were then incubated with 3.8 μM BODIPY 493/503 (Life Technologies) for 30 minutes in culture media at 37° C., then washed two times with PBS before replacing with fresh culture media containing DRAQ5 (Thermofisher) at 1:1500. Organoids were then imaged on a confocal as described above.
# organoids [2] = test: Heroin metabolism in liver organoids (UPLC-MS/MS); assay type: in vitro ADME, human; conditions: 10 μM heroin
# Experimental: After 21 days differentiation, 50 organoids per well were loaded in triplicate into a 96-well plate and treated with culture media supplemented with 10 μM heroin for 1, 3, 6, and 24 hours. For controls, we used culture media without organoids; these were performed in parallel to measure heroin degradation throughout the experiment. To stop metabolism at each time point the samples were transferred to a new 96-well plate prefilled with formic acid (final conc. 0.1 M) along with internal standards. The samples were centrifuged for 10 minutes at 1000×g at 4° C. The supernatants were transferred to auto-sampler vials and analysed for heroin, morphine, and M3G using an Acquity UPLC system (Waters, Milford, MA) coupled to a Xevo-TQS triple quadrupole mass spectrometer with an electrospray ionization interface (Waters) based on a method previously described 62. Data acquisition, peak integration, and quantification of samples were performed using MassLynx 4.0 SCN509 software (Waters Corp., Milford, MA, USA).
# The field of non-CYP450-mediated metabolism has attracted increasing attention as an important player in absorption, distribution, metabolism, and excretion^44. […] We tested if organoids supported heroin metabolism by exposure to 10 μM heroin and quantification by UPLC-MS/MS. […]
# [3] = system: human liver microsomes and a human S9 fraction; test: Heroin metabolism in control liver fractions; assay type: in vitro ADME; conditions: controls: human liver microsomes and human S9 fraction
# Text: The field of non-CYP450-mediated metabolism has attracted increasing attention as an important player in absorption, distribution, metabolism, and excretion^44. We investigated liver carboxyl esterases (CES), which are hydrolytic enzymes involved in the metabolism of endogenous esters, ester-containing drugs, pro-drugs and environmental toxicants^45. The CES enzymes also metabolize a wide range of xenobiotic substrates including heroin, which is metabolized by sequential deacetylation (phase I reaction) to 6-monoacetylmorphine (6-MAM) and morphine. Morphine is then glucuronidated, by a phase II reaction via UDP-glucuronosyltransferase (UGT) to morphine-3-glucuronide (M3G). We tested if organoids supported heroin metabolism by exposure to 10 μM heroin and quantification by UPLC-MS/MS. We also compared organoid metabolism to human liver microsomes and a human S9 fraction (unfractionated microsomes and cytosol. The kinetics of metabolism was slower in the organoids we observed phase I metabolism of heroin by CES to morphine in approximately 6 hours, while the controls produced morphine in approximately 12 minutes. However, phase II metabolism (UGT) to morphine glucuronides was detectable in the organoids and absent in the controls.
SMILES,lipid accumulation in organoids (Bodipy) (organoids [1]),phase II metabolism (UGT) to morphine glucuronides (organoids [2]),phase II metabolism (UGT) to morphine glucuronides [3]
"CCCCCCCC/C=C\CCCCCCCC(=O)O [free fatty acid, Oleic acid]",massive lipid accumulation,,
CC(=O)Oc1ccc2c3c1O[C@H]1[C@@H](OC(C)=O)C=C[C@H]4[C@@H](C2)N(C)CC[C@@]341 [heroin],,detectable,absent
